Usually pIC50 stands for −log10 of the IC50, conventionally taken in molar units. In general, GI50 refers to the concentration giving 50% growth inhibition.

pIC50: −log10 of the molar value. A value given as a limit tells only on which side of the number the result lay.

Experiment [1] addresses T1, recombinant human CLK3 (Homo sapiens, UniProt P49761).
T1 construct: purchased Thermo Fisher Scientific PV3826
In words: CLK3 kinase assay (LANCE Ultra). The experiment is classed as biochemical. To be noted: 0.5 nM CLK3, 300 μM ATP, 3 hours at 30° C. How it is done: CLK3 kinase activity was measured using the LANCE® Ultra technology (PerkinElmer) essentially as recommended by the supplier. Briefly, 2.5 μL of test sample at 4× the desired final concentration in 4% DMSO were dispensed into white, low volume, round bottom, 384 well plates (Corning, cat. no. 4512). 5 μL of a mixture containing recombinant human CLK3 (Thermo Fisher Scientific, cat. no. PV3826) and the labeled peptide substrate ULight™-CREBtide (PerkinElmer, cat. no. TRF0107) prepared in 1.33× kinase buffer (Thermo Fisher Scientific, cat. no. PV3189) were then added. Finally, the reactions were started by adding 2.5 μL of a 4× solution of ATP in kinase buffer. The plates were sealed with adhesive foils and incubated for 3 hours at 30° C. in the dark. The final concentrations of CLK3, ULight™—CREBtide, and ATP were 0.5 nM, 50 nM, and 300 μM, respectively. 5 μL of 40 mM EDTA were then added to terminate the reactions. The Eu-anti-phospho-CREB antibody (PerkinElmer, cat. no. TRF0200) diluted in LANCE® detection buffer (PerkinElmer, cat. no. CR97) was then added to a final concentration of 2 nM and the reactions were incubated for 1 hour at room temperature in the dark. The signals were measured using a Synergy 4 reader (BioTek) with a 320/80 nm filter for the excitation and 620/10 nm and 665/8 nm filters for the donor and acceptor emission, respectively. […] IC50 values were calculated by fitting the concentration-response data to a sigmoidal 4-parameter logistic model.

The test system of experiment [2] is MDA-MB-231 cells. In words: MDA-MB-231 proliferation assay. The experiment is classed as cell-based. To be noted: Homo sapiens, 72 hours, YO-PRO-1 readout. How it is done: MDA-MB-231 Proliferation Assay
MDA-MB-231 cells were cultivated in DMEM High Glucose (4.5 g/L) with L-Glutamine (BioConcept, cat. no. 1-26F03-I) supplemented with 1% Na-pyruvate (Sigma, cat. no. S8636), 1% Penicillin-Streptomycin (BioConcept, cat. no. 4-01F00H), and 10% FBS (Sigma, cat. no. F9665) using standard techniques. Cells were seeded in black, clear-bottom 384 well plates for tissue culture (Greiner Bio-One, cat. no. 781091) at a density of 750 cells per well in 20 μL medium and the plates were incubated overnight at 37° C. with 5% CO2 prior to treatment. Experimental compounds were serially diluted in DMSO to 200× the desired final concentrations. The solutions were then diluted 1:40 with culture medium and 5 μL aliquots were mixed into the wells containing the cells. The final concentration of DMSO was 0.5%. The plates were incubated for 72 hours and cell numbers were then measured using YO-PRO™-1 Iodide (ThermoFisher Scientific, cat. no. Y3603) essentially as recommended by the manufacturer. […] The plates were incubated at room temperature in the dark for 30 minutes. Fluorescence intensity signals were then measured on a Synergy 4 reader (BioTek) using 485/20 nm and 530/25 nm filters for the excitation and emission, respectively. Relative proliferation values were calculated by normalizing the raw data using DMSO-treated cells (100% proliferation) and the signals obtained from cells that were evaluated at the time of compound addition (0% proliferation). The concentration-response data were fitted to a sigmoidal 4-parameter logistic model with the maximum constrained to 100%.

T1 sequence (P49761 whole entry): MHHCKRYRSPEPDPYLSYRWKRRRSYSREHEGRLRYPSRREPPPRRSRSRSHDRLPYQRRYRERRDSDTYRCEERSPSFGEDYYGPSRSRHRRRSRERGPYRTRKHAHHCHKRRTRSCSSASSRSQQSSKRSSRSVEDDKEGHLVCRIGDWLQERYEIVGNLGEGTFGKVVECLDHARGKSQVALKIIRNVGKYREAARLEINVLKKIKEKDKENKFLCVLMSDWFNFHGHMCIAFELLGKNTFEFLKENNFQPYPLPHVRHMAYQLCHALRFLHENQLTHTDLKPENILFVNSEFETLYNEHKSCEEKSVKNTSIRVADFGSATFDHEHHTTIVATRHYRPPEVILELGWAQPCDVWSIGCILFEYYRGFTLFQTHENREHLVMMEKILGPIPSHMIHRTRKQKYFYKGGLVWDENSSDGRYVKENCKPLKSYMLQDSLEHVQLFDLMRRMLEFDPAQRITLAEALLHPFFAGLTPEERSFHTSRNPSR

For the molecule `CC1(C)/C(=N/OCCN2CCCCC2)c2cc(O[C@H]3CC[C@H](N)CC3)ccc2-c2ncnc(N)c21` [Example 16, (6Z)-8-(trans-4-aminocyclohexoxy)-5,5-dimethyl-6-[2-(1-piperidyl)ethoxyimino]benzo[h]quinazolin-4-amine], in experiment [1], the pIC50 was 6.58. Moreover, in experiment [2], the concentration for 50% growth inhibition (GI50) is over 2000 nM.

As to `CC1(C)/C(=N/OCc2ccc(C#N)cc2)c2cc(O[C@H]3CC[C@H](N)CC3)ccc2-c2ncnc(N)c21` [Example 20, 4-[[(Z)-[4-amino-8-(trans-4-aminocyclohexoxy)-5,5-dimethyl-benzo[h]quinazolin-6-ylidene]amino]oxymethyl]benzonitrile], the pIC50 in experiment [1] was 6.63. In addition, in experiment [2], the 50% growth inhibitory concentration (GI50) is over 2000 nM.

For the molecule `CC1(C)/C(=N/OCC#N)c2cc(O[C@H]3CC[C@H](N)CC3)ccc2-c2ncnc(N)c21` [Example 22, [(Z)-[4-amino-8-(trans-4-aminocyclohexoxy)-5,5-dimethyl-benzo[h]quinazolin-6-ylidene]amino]oxyacetonitrile], the pIC50 in experiment [1] is 7.46. Also, the GI50 in experiment [2] was found to be 691 nM.

As for `CCOC(=O)CCO/N=C1\c2cc(O[C@H]3CC[C@H](N)CC3)ccc2-c2ncnc(N)c2C1(C)C` [Example 23, ethyl 3-[(Z)-[4-amino-8-(trans-4-aminocyclohexoxy)-5,5-dimethyl-benzo[h]quinazolin-6-ylidene]amino]oxypropanoate], in experiment [1], the pIC50 is 7.58. Further, the GI50 in experiment [2] worked out at 647 nM.

For the molecule `Cc1noc(C)c1CO/N=C1\c2cc(O[C@H]3CC[C@H](N)CC3)ccc2-c2ncnc(N)c2C1(C)C` [Example 25, (6Z)-8-(trans-4-aminocyclohexoxy)-6-[(3,5-dimethylisoxazol-4-yl)methoxyimino]-5,5-dimethyl-benzo[h]quinazolin-4-amine], the pIC50 in experiment [1] was 6.82. Moreover, the GI50 in experiment [2] was 1600 nM.

Take `CC1(C)/C(=N/OCCCOCc2ccccc2)c2cc(O[C@H]3CC[C@H](N)CC3)ccc2-c2ncnc(N)c21` [Example 26, (6Z)-8-(trans-4-aminocyclohexoxy)-6-(3-benzyloxypropoxyimino)-5,5-dimethyl-benzo[h]quinazolin-4-amine]: the pIC50 in experiment [1] is 7.37. The GI50 in experiment [2] was 1360 nM.

As to `CC1(C)/C(=N/OCCN2CCCC2)c2cc(O[C@H]3CC[C@H](N)CC3)ccc2-c2ncnc(N)c21` [Example 28, (6Z)-8-(trans-4-aminocyclohexoxy)-5,5-dimethyl-6-(2-pyrrolidin-1-ylethoxyimino)benzo[h]quinazolin-4-amine], the negative-log IC50 (pIC50) in experiment [1] is 6.55. Also, the GI50 in experiment [2] was over 2000 nM.

As for `CC(C)CO/N=C1\c2cc(O[C@H]3CC[C@H](N)CC3)ccc2-c2ncnc(N)c2C1(C)C` [Example 30, (6Z)-8-(trans-4-aminocyclohexoxy)-6-isobutoxyimino-5,5-dimethyl-benzo[h]quinazolin-4-amine], the negative logarithm of the IC50 (pIC50) in experiment [1] was 7.03. For the same molecule, the GI50 in experiment [2] was 1560 nM.

In the case of `COC(=O)CO/N=C1\c2cc(O[C@H]3CC[C@H](N)CC3)ccc2-c2ncnc(N)c2C1(C)C` [Example 31, methyl 2-[(Z)-[4-amino-8-(trans-4-aminocyclohexoxy)-5,5-dimethyl-benzo[h]quinazolin-6-ylidene]amino]oxyacetate], the negative-log IC50 (pIC50) in experiment [1] is 7.12. Moreover, the 50% growth inhibitory concentration (GI50) in experiment [2] was 1580 nM.

Regarding `CC1(C)/C(=N/OCC(N)=O)c2cc(O[C@H]3CC[C@H](N)CC3)ccc2-c2ncnc(N)c21` [Example 32, 2-[(Z)-[4-amino-8-(trans-4-aminocyclohexoxy)-5,5-dimethyl-benzo[h]quinazolin-6-ylidene]amino]oxyacetamide], the pIC50 in experiment [1] is 7.53. Besides, the GI50 in experiment [2] was found to be 1490 nM.

Regarding `CNC(=O)CO/N=C1\c2cc(O[C@H]3CC[C@H](N)CC3)ccc2-c2ncnc(N)c2C1(C)C` [Example 33, 2-[(Z)-[4-amino-8-(trans-4-aminocyclohexoxy)-5,5-dimethyl-benzo[h]quinazolin-6-ylidene]amino]oxy-N-methyl-acetamide], the pIC50 in experiment [1] is 7.63. Moreover, the GI50 in experiment [2] was found to be 1190 nM.

As for `CC1(C)/C(=N/OCC2CNC(=O)O2)c2cc(O[C@H]3CC[C@H](N)CC3)ccc2-c2ncnc(N)c21` (stereo partly drawn) [Example 34, 5-[[(Z)-[4-amino-8-(trans-4-aminocyclohexoxy)-5,5-dimethyl-benzo[h]quinazolin-6-ylidene]amino]oxymethyl]oxazolidin-2-one], in experiment [1], the negative-log IC50 (pIC50) was 7.96. The GI50 in experiment [2] turned out to be 620 nM.

For `CN(C)CCO/N=C1\c2cc(O[C@H]3CC[C@H](N)CC3)ccc2-c2ncnc(N)c2C1(C)C` [Example 35, (6Z)-8-(trans-4-aminocyclohexoxy)-6-[2-(dimethylamino)ethoxyimino]-5,5-dimethyl-benzo[h]quinazolin-4-amine], the pIC50 in experiment [1] was 6.84. For the same molecule, the concentration for 50% growth inhibition (GI50) in experiment [2] came out at 1480 nM.

For the molecule `CO/N=C1\c2cc(O[C@H]3CC[C@H](N)CC3)sc2-c2ncnc(N)c2C1(C)C` [Example 36, (6Z)-8-(trans-4-aminocyclohexoxy)-6-methoxyimino-5,5-dimethyl-thieno[3,2-h]quinazolin-4-amine], the negative-log IC50 (pIC50) in experiment [1] was 7.25. Also, the GI50 in experiment [2] worked out at 1150 nM.

As for `CC1(C)/C(=N/OC[C@H]2CNC(=O)O2)c2cc(O[C@H]3CC[C@H](N)CC3)ccc2-c2ncnc(N)c21` [Example 37, (5R)-5-[[(Z)-[4-amino-8-(trans-4-aminocyclohexoxy)-5,5-dimethyl-benzo[h]quinazolin-6-ylidene]amino]oxymethyl]oxazolidin-2-one], the pIC50 in experiment [1] is 7.23. Moreover, the GI50 in experiment [2] is over 2000 nM.

Regarding `CO/N=C1\c2cc(OC)c(Cl)cc2-c2ncnc(N)c2C1(C)C` [Example 41, (6Z)-9-chloro-8-methoxy-6-methoxyimino-5,5-dimethyl-benzo[h]quinazolin-4-amine], the pIC50 in experiment [1] is 7.03. For the same molecule, in experiment [2], the GI50 is over 2000 nM.

On to `CO/N=C1\c2c(ccc(OC)c2Cl)-c2ncnc(N)c2C1(C)C` [Example 43, (6Z)-7-chloro-8-methoxy-6-methoxyimino-5,5-dimethyl-benzo[h]quinazolin-4-amine], for which the pIC50 in experiment [1] was 7.04. The GI50 in experiment [2] was over 2000 nM.

As for `CO/N=C1\c2cc(N(C)[C@H]3CC[C@H](N)CC3)ccc2-c2ncnc(N)c2C1(C)C` [Example 44, (6Z)—N8-(trans-4-aminocyclohexyl)-6-methoxyimino-N8,5,5-trimethyl-benzo[h]quinazoline-4,8-diamine], in experiment [1], the negative logarithm of the IC50 (pIC50) was 7.80. For the same molecule, the GI50 in experiment [2] is over 2000 nM.

Regarding `CO/N=C1/c2cc(O[C@H]3CC[C@H](N)CC3)ccc2-c2ncnc(N)c2C1(C)C` [Example 45, (6E)-8-(trans-4-aminocyclohexoxy)-6-methoxyimino-5,5-dimethyl-benzo[h]quinazolin-4-amine], the pIC50 in experiment [1] was 6.98. Further, the concentration for 50% growth inhibition (GI50) in experiment [2] was 1460 nM.

Regarding `CC1(C)/C(=N\O)c2cc(O[C@H]3CC[C@H](N)CC3)ccc2-c2ncnc(N)c21` [Example 46, (6E)-4-amino-8-(trans-4-aminocyclohexoxy)-5,5-dimethyl-benzo[h]quinazolin-6-one oxime], the pIC50 in experiment [1] was 7.90. Further, the GI50 in experiment [2] was determined as 470 nM.

Consider `C=C(c1ccc2c(c1)/C(=N/OC)C(C)(C)c1c(N)ncnc1-2)[C@H]1CC[C@H](N)CC1` [Example 47, (6E)-8-[1-(trans-4-aminocyclohexyl)vinyl]-6-methoxyimino-5,5-dimethyl-benzo[h]quinazolin-4-amine], for which, in experiment [1], the negative logarithm of the IC50 (pIC50) was 7.11. Further, in experiment [2], the GI50 amounted to 443 nM.
